Laboratory results taken from patent publication US11964969B2, “Crystal forms of thiazole compound and application thereof” (PHAENO THERAPEUTICS CO., LTD, priority 2018, dated 2024).
pEC50: −log10 of the molar value.

Legend:
[1] = Hygroscopicity study by dynamic vapor sorption (DVS); type: physicochemical; conditions: 25° C. and 80% RH
Protocol: Dynamic Vapor Sorption (DVS) Method Used in the Present Disclosure
Instrument model: SMS DVS Advantage dynamic vapor sorption apparatus
Test condition: The sample (10˜15 mg) was taken and put into a DVS sample pan for testing.
The detailed DVS parameters were as follows:
Equilibration: dm/dt=0.01%/min (The shortest time: 10 min, and the longest time: 180 min)
Drying: Dried for 120 min at 0% RH
RH (%) test gradient: 10%
Range of RH (%) test gradient: 0%-90%-0%
The classification of hygroscopicity evaluation was as follows:
Example 4: Study on the Hygroscopicity of the Crystal Form B of the Compound of Formula (II)
SMS DVS Advantage dynamic vapor sorption apparatus
10-15 mg of the crystal form B of the compound of formula (II) was taken and put into a DVS sample pan for testing.

[2] = system: GHSV-UL 46 strain of herpes simplex virus-1 (HSV-1); test: Assay of cytopathic effect (CPE) of herpes simplex virus-1 in Vero E6 cells; type: cell-based; conditions: Human alphaherpesvirus 1, Vero C1008, 120 h, read-out: HSV-1 Cytopathic Assay EC50
Protocol: Assay Example 1: Assay of Cytopathic Effect of Herpes Simplex Virus-1 (Evaluation In Vitro)
The assay of cytopathic effect (CPE) was used to determine the antiviral activity of the compound against the GHSV-UL 46 strain of herpes simplex virus-1 (HSV-1).
Virus: HSV-1 GHSV-UL46, ATCC #VR-1544
Cell: African green monkey kidney cell, Vero E6, donated by Wuhan Instititute of Virology, Chinese Academy of Sciences.
Cell growth medium: 500 ml of DMEM medium+50 ml of fetal bovine serum+5 ml of double antibody+5 ml of non-essential amino acids.
Medium for the assay of cytopathic effect: 500 ml of DMEM medium+10 ml of fetal bovine serum+5 ml of double antibody+5 ml of non-essential amino acids.
1.4. […]
2.2. […] Each test compound was measured at 8 concentrations in duplicate. […]
3.4. The absorbance value of each well of the cell plate was read with a microplate reader at a wavelength of 450 nm, and 630 nm was used as a reference wavelength. The value of raw data was the absorbance at 450 nm minus the absorbance at 630 nm (raw data=OD450−OD630).
4.1. The antiviral activity of the test compound (% Inhibition) was calculated using the following equation:
[formula] wherein sample is the absorbance value of compound test wells, cell control is the average absorbance value of cell control wells, and virus control is the average absorbance value of virus control wells. […]

[3] = Evaluation of pharmacokinetics of the compound in mice; type: in vivo; conditions: male, mouse, plasma, Balb/c mice
Protocol: Assay Example 2: Evaluation of Pharmacokinetics of the Compound
Object of the assay: to test the pharmacokinetics of the compound in mice in vivo.
Balb/c mice (male, 18-22 g, 6-8 weeks old, from Shanghai SLAC)
The pharmacokinetic profile of the compound after intravenous injection and oral administration in the rodents was tested by the standard protocol. The candidate compound was formulated into a corresponding solution, and administered through a single intravenous injection (1.0 mg/kg, 5% of DMSO/95% of 20% hydroxypropyl-beta-cyclodextrin) or an intragastric administration (1.0 mg/kg, 0.5% of methylcellulose MC4000). The whole blood sample was collected within 24 hours, and centrifuged at 3000 g for 15 minutes. […] The resulting mixture was centrifuged and the supernatant was taken out, to which an equal volume of water was added and centrifuged. The supernatant was taken out, and injected as a sample to quantitatively analyze the plasma drug concentration by LC-MS/MS analysis method. The pharmacokinetic parameters were calculated, such as peak concentration, peak time, clearance rate, half-life, area under the drug-time curve, bioavailability, etc.

SMILES	Classification of hygroscopicity [1]	Weight increase by moisture absorption ΔW [1]	pEC50 [2]	bioavailability ([3]; intragastric (oral) administration 1.0 mg/kg, read-out: Bioavailability F)	AUC ([3]; intragastric (oral) administration 1.0 mg/kg, read-out: Concentration integral AUC)	clearance ([3]; single intravenous injection 1.0 mg/kg, read-out: Clearance rate)	half-life ([3]; single intravenous injection 1.0 mg/kg, read-out: Half-life T1/2 (converted))
CS(=O)(=O)O.Cc1nc(N(C)C(=O)[C@@H]2Cc3ccc(-c4ccccn4)cc3C2)sc1S(N)(=O)=O	slightly hygroscopic	1.158%					
Cc1nc(N(C)C(=O)[C@@H]2Cc3ccc(-c4ccccn4)cc3C2)sc1S(N)(=O)=O [Compound of formula (I)]			8.15	75%	24.4 µM·h	1.2 mL/min/kg	6 h
